How the values were obtained:
male C57BL/6N mice = experiment: Seizure threshold upon pentylenetetrazole (PTZ) tail-vein infusion; assay type: in vivo; settings: intraperitoneal, 30 min before the test, n = 4, control 39.5 ± 0.8
Protocol: Only male C57BL/6N mice (age 3-6 months) were used for determination of the seizure threshold. Intraperitoneal injection of control or compound-containing solutions was done 30 min before the test. Indicated doses in the results represent milligrams per kilogram body weight. Seizure threshold was determined by pentylenetetrazole (PTZ) tail-vein infusion on freely moving animals at a rate of 100 µl/min (10 mg/ml PTZ in saline, pH = 7.4). […] Animals were immediately killed by cervical displacement after onset of seizures. The seizure threshold dose was calculated from the infused dose in relation to body weight (mg/kg).

[1] = system: native GABAA receptors, primary cultures of dissociated hippocampal neurons; experiment: Whole-cell patch clamp on cultured hippocampal neurons (miniature IPSCs and tonic currents); assay type: cell-based; settings: 10 µM compound, holding potential -70 mV
[2] = biological target: GABAA receptors composed of α1β2γ2S subunits (Homo sapiens, UniProt P14867+P47870); experiment: Two-microelectrode voltage clamp: IGABA enhancement in Xenopus laevis oocytes
Chain of GABAA receptors composed of α1β2γ2S subunits (P14867 28-456): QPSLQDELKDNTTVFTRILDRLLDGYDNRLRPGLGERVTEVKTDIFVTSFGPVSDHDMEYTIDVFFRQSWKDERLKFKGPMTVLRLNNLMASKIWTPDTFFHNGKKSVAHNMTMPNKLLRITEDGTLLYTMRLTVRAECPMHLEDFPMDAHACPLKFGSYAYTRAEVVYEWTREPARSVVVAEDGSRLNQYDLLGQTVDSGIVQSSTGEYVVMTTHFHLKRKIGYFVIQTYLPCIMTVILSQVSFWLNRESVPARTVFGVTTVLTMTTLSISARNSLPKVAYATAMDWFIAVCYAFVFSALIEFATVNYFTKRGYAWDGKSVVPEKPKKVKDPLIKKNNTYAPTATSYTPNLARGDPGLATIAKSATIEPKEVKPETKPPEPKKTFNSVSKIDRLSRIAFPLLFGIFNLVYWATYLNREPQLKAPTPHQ
Chain of GABAA receptors composed of α1β2γ2S subunits (P47870 26-474 isoform P47870-1 limits assumed): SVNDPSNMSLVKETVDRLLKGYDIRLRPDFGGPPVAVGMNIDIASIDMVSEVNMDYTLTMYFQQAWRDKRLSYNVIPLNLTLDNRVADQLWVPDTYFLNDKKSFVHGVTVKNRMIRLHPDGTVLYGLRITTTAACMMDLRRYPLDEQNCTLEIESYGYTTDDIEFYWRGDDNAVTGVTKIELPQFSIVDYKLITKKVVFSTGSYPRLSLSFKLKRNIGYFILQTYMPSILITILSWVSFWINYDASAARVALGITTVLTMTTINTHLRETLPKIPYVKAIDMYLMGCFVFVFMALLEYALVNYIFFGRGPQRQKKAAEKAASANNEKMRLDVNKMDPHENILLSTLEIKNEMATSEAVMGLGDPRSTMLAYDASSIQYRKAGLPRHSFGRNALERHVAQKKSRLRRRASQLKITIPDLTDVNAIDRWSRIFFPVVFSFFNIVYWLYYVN
Chain of GABAA receptors composed of α1β2γ2S subunits (P18507 40-467 isoform P18507-1 partner limits assumed): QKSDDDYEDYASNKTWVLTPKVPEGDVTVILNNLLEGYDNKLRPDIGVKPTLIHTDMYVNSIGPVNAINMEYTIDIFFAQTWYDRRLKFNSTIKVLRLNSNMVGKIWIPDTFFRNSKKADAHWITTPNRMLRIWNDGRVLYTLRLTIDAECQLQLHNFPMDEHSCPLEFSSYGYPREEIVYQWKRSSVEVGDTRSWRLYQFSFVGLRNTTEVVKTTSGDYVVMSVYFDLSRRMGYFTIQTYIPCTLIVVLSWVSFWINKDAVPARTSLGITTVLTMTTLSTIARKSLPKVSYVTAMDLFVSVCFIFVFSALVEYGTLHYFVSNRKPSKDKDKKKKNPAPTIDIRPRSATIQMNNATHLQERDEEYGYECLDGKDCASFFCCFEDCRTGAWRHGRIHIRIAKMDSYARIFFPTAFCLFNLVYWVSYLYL

[3] = biological target: GABAA receptors composed of α1β1γ2S subunits (Homo sapiens, UniProt P14867+P18505); experiment: as above; settings: replacing β2/3 by β1; Emax and EC50 not determined
Chain of GABAA receptors composed of α1β1γ2S subunits (P14867 28-456): as the sequence (P14867 28-456) above
Chain of GABAA receptors composed of α1β1γ2S subunits (P18505 26-474): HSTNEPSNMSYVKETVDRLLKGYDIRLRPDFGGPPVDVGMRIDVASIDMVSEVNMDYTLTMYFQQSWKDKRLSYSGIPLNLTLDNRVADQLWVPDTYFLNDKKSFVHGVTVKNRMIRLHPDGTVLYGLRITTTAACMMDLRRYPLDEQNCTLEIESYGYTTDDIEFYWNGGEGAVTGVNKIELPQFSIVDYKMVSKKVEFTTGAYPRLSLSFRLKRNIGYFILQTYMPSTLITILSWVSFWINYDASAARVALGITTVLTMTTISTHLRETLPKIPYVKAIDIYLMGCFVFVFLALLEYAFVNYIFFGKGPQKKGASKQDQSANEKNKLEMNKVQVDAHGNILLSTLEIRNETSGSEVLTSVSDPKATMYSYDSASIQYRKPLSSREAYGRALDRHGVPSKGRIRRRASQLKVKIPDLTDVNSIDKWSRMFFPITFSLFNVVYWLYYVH
Chain of GABAA receptors composed of α1β1γ2S subunits (P18507 40-467 isoform P18507-1 partner limits assumed): as the sequence (P18507 40-467 isoform P18507-1 partner limits assumed) above

- EC50 [2]: 9.9 ± 2.5 µM
- Emax ([2]; second β2/3 channel of Fig. 1B, printed as α1β3γ2S, n = 3, no unit at this value): 1804.9 ± 153.0%
- sensitivity of the resulting GABAA channels [3]: drastically reduced the sensitivity
Structure (SMILES): C/C(=C/C#N)c1ccc(Cl)cc1Cl [Compound Z-2, (2Z)-3-(2,4-dichlorophenyl)but-2-enenitrile]
- seizure threshold (male C57BL/6N mice; 0.1 mg/kg body weight): 48.5 ± 2.3 mg/kg PTZ
- seizure threshold (male C57BL/6N mice; 0.3 mg/kg body weight): 52.3±1.6 mg/kg PTZ
- amplitude of mIPSCs [1]: no effect
- frequency of mIPSCs [1]: no effect
- holding currents [1]: shifted towards more negative values
- decay of mIPSCS (normalized) ([1]; compared to control, n=5): 213.8 ± 41.0%

— patent publication EP3498273A1, “PHARMACEUTICAL COMPOSITION FOR MODULATING THE RESPONSE OF A GABA-A RECEPTOR” (Universität Wien, priority 2017, dated 2019)
